# In ChEMBL document CHEMBL1123367, “Furanose-pyranose isomerization of reduced pyrimidine and cyclic urea ribosides” (J Med Chem, 1986):
# Assays:
# [1] = Half-life of the initial pseudo-first-order isomerization at apparent pH 2.0 and 25 degree celsius; format: ADME; conditions: read-out: T1/2 app (converted)
# [2] = Half-life of the initial pseudo-first-order isomerization at apparent pH 2.8 and 37 degree celsius; format: ADME; conditions: read-out: T1/2 app (converted)
# [3] = Half-life of the initial pseudo-first-order isomerization at apparent pH 1.0 and 37 degree celsius; format: ADME; conditions: read-out: T1/2 app (converted)
# [4] = Half-life of the initial pseudo-first-order isomerization at apparent pH 1.0 and 25 degree celsius; format: ADME; conditions: read-out: T1/2 app
# Cytidine deaminase = Cytidine deaminase (Mus musculus, UniProt P56389); assay: Compound was tested […] for its ability to inhibit mouse kidney cytidine deaminase (CDA)
# Cytidine deaminase, sequence (P56389 whole entry): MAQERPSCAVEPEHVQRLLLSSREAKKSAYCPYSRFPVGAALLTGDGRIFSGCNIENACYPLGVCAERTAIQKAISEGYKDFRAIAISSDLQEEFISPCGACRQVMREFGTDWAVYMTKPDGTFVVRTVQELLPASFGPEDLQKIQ
half-life [1] [h],half-life [2] [h],half-life [3] [h],half-life [4] [h],Ki (Cytidine deaminase) [µM],SMILES
2.23,5.2,0.63,< 0.2,,O=C1NCCCN1[C@@H]1O[C@H](CO)[C@@H](O)[C@H]1O
,,,,> 50,O=C1NCCCN1C1OC[C@@H](O)[C@H](O)[C@@H]1O (stereo partly specified)
,,,,6.6,O=C1NCCCCN1[C@@H]1OC[C@@H](O)[C@@H](O)[C@H]1O
